The text below walks through data of patent US9408828B2, “(+)-3′-angeloyloxy-4′-keto-3′,4′-dihydroseselin for treating inflammation” (Hong Kong Baptist University, priority 2014, dated 2016).

This experiment has as its system NF-κB p65. The experiment can be described thus: Immunofluorescence staining of NF-κB nuclear translocation. The format is cell-based, murine. The settings on record: 5-20 μg/mL pretreatment 2 hours, LPS 1 μg/mL 20 hours. The method, then:
Data are derived from three independent experiments. Original magnification, 40×.
Raw-Blue cells are cultured (20×10^4 cells/well) on glass coverslips and incubated for 24 hours. Cells are pretreated with various concentrations (5-20 μg/mL) of Pd-Ib for 2 hours. Then treated with LPS (1 μg/mL) for 20 hours. Subsequently, the coverslips are rinsed twice with PBS, and cells are fixed in 4% paraformaldehyde (PFA) in PBS at room temperature for 15 minutes. Cellular and nuclear membranes of the macrophages are permeabilized by treatment with 3% Triton X-100 in PBS for 15 minutes. After being blocked with 3% bovine serum albumin (BSA) in PBS for 1 hour, the cells is incubated with primary antibody in 3% BSA/PBS (1:500 dilution) at 4° C. overnight. After washing with PBS, the cells are incubated with the red-conjugated secondary antibody (1:500 dilution) in 3% BSA/PBS at room temperature for 1 hour and finally washed again for three time with PBS. Then, counter-staining is performed with DAPI (1:1,000 dilution) in 3% BSA/PBS nucleus with for 10 minutes. The cells are washed for three times with PBS, and then anti-fade mounting medium is added. Samples are observed under a fluorescence microscope.

For the compound `C/C=C(\C)C(=O)OC1C(=O)c2c(ccc3ccc(=O)oc23)OC1(C)C` (single isomer, unassigned; (+)) [Pd-Ib, (+)-3′-Angeloyloxy-4′-keto-3′,4′-dihydroseselin], the p65 nuclear translocation entry is recorded as “significantly inhibits the p65 nuclear translocation”.
